The record followed here is patent US11149037B2, “Pyrazole MAGL inhibitors” (H. Lundbeck A/S, priority 2017, dated 2021).

The target of experiment [1] is FAAH (Homo sapiens (Human), UniProt O00519). As to the kind of experiment: In vitro competitive activity-based protein profiling, human proteomes (prefrontal cortex or PC3 cell membrane fractions). It is filed as biochemical. The note with it: human proteome; for inhibition at 1 µM: read-out: FAAH % inh. 1 μM (human). A digest of the protocol: (§1)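 Activity of MAGL and FAAH was quantified from fluorescent gel band intensities. Beforehand, inhibitors at several concentrations competed against subsequent probe labelling (FP-Rh, JW912 or HT-01) in species-matched proteomes, each step 30 min at 37° C.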

Experiment [2] addresses MAGL (Homo sapiens (Human), UniProt Q99685). The experiment is described as above. The note with it: human proteome; for inhibition at 1 µM: read-out: MAGL % inh. 1 μM (human). It is filed as biochemical. A digest of the protocol: as §1
In experiment [3] the target is T1, FAAH (Mus musculus (Mouse), UniProt O08914). As to the kind of experiment: In vitro competitive activity-based protein profiling, mouse proteomes (brain membrane fraction or cell lysates). It is filed as biochemical. To be noted: mouse proteome, read-out: FAAH % inh. 1 μM (mouse). A digest of the protocol: as §1
Experiment [4] addresses T2, MAGL (Mus musculus (Mouse), UniProt O35678). The experiment is described as above. It is filed as biochemical. The note with it: mouse proteome, read-out: MAGL % inh. 1 μM (mouse). A digest of the protocol:
as §1

Experiment [5] concerns the target T1, FAAH. The experiment in a line: Mouse brain proteomes from inhibitor treated mice (oral gavage, sacrificed 4 h after administration). Format: in vivo. The note with it: 5 mg/kg oral gavage. On the procedure: (§2) Preparation of Mouse Brain Proteomes from Inhibitor Treated Mice.
(§3) Inhibitors were administered to wild-type C57B1/6J by oral gavage in a vehicle of polyethylene glycol. Each animal was sacrificed 4 h following administration and brain proteomes were prepared and analyzed according to previously established methods (See Niphakis, M. J., et al. (2011) ACS Chem. Neurosci. and Long, J. Z., et al. Nat. Chem. Biol. 5:37-44).

The target of experiment [6] is T2, MAGL. The description is as above. It is filed as in vivo. The note with it: 5 mg/kg oral gavage. As to the method:
as §2, §3

Chain of MAGL (Homo sapiens (Human), UniProt Q99685) (Q99685 whole entry): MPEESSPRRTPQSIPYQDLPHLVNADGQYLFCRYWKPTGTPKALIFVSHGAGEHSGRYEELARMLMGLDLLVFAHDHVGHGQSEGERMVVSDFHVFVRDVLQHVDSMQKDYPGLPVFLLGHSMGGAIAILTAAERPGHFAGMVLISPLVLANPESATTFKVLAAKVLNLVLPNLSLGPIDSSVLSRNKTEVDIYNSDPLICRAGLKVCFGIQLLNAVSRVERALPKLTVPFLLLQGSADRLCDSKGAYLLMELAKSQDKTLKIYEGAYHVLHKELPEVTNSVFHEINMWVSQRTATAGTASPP
T2 sequence (O35678 whole entry): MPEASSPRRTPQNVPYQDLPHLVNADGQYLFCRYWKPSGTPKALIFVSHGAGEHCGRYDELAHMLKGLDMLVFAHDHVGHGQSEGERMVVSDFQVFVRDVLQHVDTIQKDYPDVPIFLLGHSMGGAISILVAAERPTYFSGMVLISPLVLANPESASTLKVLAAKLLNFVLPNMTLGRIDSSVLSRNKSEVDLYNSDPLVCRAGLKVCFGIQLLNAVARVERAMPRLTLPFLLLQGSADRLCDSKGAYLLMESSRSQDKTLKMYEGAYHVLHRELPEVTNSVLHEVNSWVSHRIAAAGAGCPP
Chain of FAAH (Homo sapiens (Human), UniProt O00519) (O00519 whole entry): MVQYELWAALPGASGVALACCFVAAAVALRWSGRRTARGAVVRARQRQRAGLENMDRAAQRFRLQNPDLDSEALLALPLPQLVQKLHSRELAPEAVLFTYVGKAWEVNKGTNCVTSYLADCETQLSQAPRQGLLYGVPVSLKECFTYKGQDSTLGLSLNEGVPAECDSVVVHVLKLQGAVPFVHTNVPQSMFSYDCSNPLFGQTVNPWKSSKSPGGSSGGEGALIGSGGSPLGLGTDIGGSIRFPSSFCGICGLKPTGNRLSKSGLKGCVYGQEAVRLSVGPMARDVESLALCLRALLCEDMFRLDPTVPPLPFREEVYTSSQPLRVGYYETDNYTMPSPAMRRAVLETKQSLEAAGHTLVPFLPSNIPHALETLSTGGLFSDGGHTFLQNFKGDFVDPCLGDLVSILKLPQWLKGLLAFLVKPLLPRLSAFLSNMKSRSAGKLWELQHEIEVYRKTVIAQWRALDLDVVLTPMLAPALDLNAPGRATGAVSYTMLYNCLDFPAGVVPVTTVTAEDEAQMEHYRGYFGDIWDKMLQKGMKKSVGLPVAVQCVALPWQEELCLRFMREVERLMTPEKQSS
T1 sequence (O08914 whole entry): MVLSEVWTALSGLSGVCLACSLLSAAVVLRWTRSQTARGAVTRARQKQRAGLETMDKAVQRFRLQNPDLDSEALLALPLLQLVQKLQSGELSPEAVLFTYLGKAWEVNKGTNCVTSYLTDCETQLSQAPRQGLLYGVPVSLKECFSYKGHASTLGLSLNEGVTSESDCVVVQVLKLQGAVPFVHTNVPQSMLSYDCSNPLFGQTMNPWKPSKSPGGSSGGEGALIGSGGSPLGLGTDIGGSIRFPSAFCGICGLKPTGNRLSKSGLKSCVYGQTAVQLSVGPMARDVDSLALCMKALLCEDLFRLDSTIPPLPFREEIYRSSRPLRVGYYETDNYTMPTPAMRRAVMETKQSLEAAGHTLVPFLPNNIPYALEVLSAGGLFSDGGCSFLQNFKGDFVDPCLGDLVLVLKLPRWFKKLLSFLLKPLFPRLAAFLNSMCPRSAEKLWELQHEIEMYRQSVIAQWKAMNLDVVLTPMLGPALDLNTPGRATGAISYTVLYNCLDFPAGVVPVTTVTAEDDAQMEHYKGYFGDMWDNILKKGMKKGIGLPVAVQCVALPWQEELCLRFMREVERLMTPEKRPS

In the case of `CN(Cc1ccc(C(F)(F)F)cc1N1CCOCC1)C1(C)CCN(C(=O)n2ccc(NS(C)(=O)=O)n2)CC1` [Example 94, N-(1-(4-Methyl-4-(methyl(2-morpholino-4-(trifluoromethyl)benzyl)amino)piperidine-1-carbonyl)-1H-pyrazol-3-yl)methanesulfonamide], the inhibition at 1 µM at FAAH [1] was 0 to 25%; at MAGL [2] it was > 75%; at FAAH [3], 0 to 25%; on MAGL [4], > 75%. Further, the “FAAH % inh. 5 mg/kg (mouse)” value at FAAH [5] is “D (% inhibition is greater than or equal to 0% and less than 25%)”. Besides, the “MAGL % inh. 5 mg/kg (mouse)” value at MAGL [6] was “A (% inhibition is greater than or equal to 75%)”.
For the compound `CS(=O)(=O)Nc1ccn(C(=O)N2CCC(Oc3ccc(C(F)(F)F)cc3-c3nnco3)CC2)n1` [Example 96, N-(1-(4-(2-(1,3,4-Oxadiazol-2-yl)-4-(trifluoromethyl)phenoxy)piperidine-1-carbonyl)-1H-pyrazol-3-yl)methanesulfonamide], the inhibition at 1 µM was 0 to 25% at FAAH [1], > 75% at MAGL [2], 0 to 25% at FAAH [3] and > 75% at MAGL [4]. Also, the “FAAH % inh. 5 mg/kg (mouse)” value on FAAH [5] was “D (% inhibition is greater than or equal to 0% and less than 25%)”. Moreover, the “MAGL % inh. 5 mg/kg (mouse)” value on MAGL [6] was “D (% inhibition is greater than or equal to 0% and less than 25%)”.
Turning to `CS(=O)(=O)Nc1ccn(C(=O)N2CCC(Oc3ccc(C(F)(F)F)cc3-n3cccn3)CC2)n1` [Example 98, N-(1-(4-(2-(1H-Pyrazol-1-yl)-4-(trifluoromethyl)phenoxy)piperidine-1-carbonyl)-1H-pyrazol-3-yl)methanesulfonamide], the inhibition at 1 µM is 0 to 25% on FAAH [1], > 75% on MAGL [2], 0 to 25% on FAAH [3] and > 75% at MAGL [4]. The “FAAH % inh. 5 mg/kg (mouse)” value on FAAH [5] was “D (% inhibition is greater than or equal to 0% and less than 25%)”. Moreover, the “MAGL % inh. 5 mg/kg (mouse)” value at MAGL [6] is “D (% inhibition is greater than or equal to 0% and less than 25%)”.
On to `CC(=O)N(Cc1ccc(C(F)(F)F)cc1N1CCCC1)C1(C)CCN(C(=O)n2ccc(NS(C)(=O)=O)n2)CC1` [Example 103, N-(4-Methyl-1-(3-(methylsulfonamido)-1H-pyrazole-1-carbonyl)piperidin-4-yl)-N-(2-(pyrrolidin-1-yl)-4-(trifluoromethyl)benzyl)acetamide], for which the inhibition at 1 µM on FAAH [1] was 0 to 25%; on MAGL [2] it was > 75%; at FAAH [3], 0 to 25%; on MAGL [4] it was > 75%. For the same compound, the “FAAH % inh. 5 mg/kg (mouse)” value at FAAH [5] is “D (% inhibition is greater than or equal to 0% and less than 25%)”. For the same compound, the “MAGL % inh. 5 mg/kg (mouse)” value on MAGL [6] was “D (% inhibition is greater than or equal to 0% and less than 25%)”.
As for `CN(Cc1ccc(C(F)(F)F)cc1N1CCN(C(=O)CO)CC1)C1(C)CCN(C(=O)n2ccc(NS(C)(=O)=O)n2)CC1` [Example 104, N-(1-(4-((2-(4-(2-Hydroxyacetyl)piperazin-1-yl)-4-(trifluoromethyl)benzyl)(methyl)amino)-4-methylpiperidine-1-carbonyl)-1H-pyrazol-3-yl)methanesulfonamide], the inhibition at 1 µM is 0 to 25% at FAAH [1], > 75% at MAGL [2], 0 to 25% on FAAH [3] and > 75% on MAGL [4]. Further, the “FAAH % inh. 5 mg/kg (mouse)” value on FAAH [5] was “D (% inhibition is greater than or equal to 0% and less than 25%)”. Also, the “MAGL % inh. 5 mg/kg (mouse)” value on MAGL [6] is “D (% inhibition is greater than or equal to 0% and less than 25%)”.
With `CC(=O)Nc1ccn(C(=O)N2CCN(Cc3ccc(Cl)cc3OCCCC(=O)O)CC2)n1` [Example 106, 4-(2-((4-(3-Acetamido-1H-pyrazole-1-carbonyl)piperazin-1-yl)methyl)-5-chlorophenoxy)butanoic acid], the inhibition at 1 µM was 0 to 25% at FAAH [1], > 75% at MAGL [2], 0 to 25% at FAAH [3] and > 75% at MAGL [4]. The “FAAH % inh. 5 mg/kg (mouse)” value at FAAH [5] was “D (% inhibition is greater than or equal to 0% and less than 25%)”. Moreover, the “MAGL % inh. 5 mg/kg (mouse)” value on MAGL [6] is “D (% inhibition is greater than or equal to 0% and less than 25%)”.
With `CC(=O)Nc1ccn(C(=O)N2CCN(Cc3ccc(Cl)cc3NCC(=O)O)CC2)n1` [Example 108, (2-((4-(3-Acetamido-1H-pyrazole-1-carbonyl)piperazin-1-yl)methyl)-5-chlorophenyl)glycine], the inhibition at 1 µM on FAAH [1] was 0 to 25%; at MAGL [2] it was > 75%; at FAAH [3], 0 to 25%; at MAGL [4] it was > 75%. The “FAAH % inh. 5 mg/kg (mouse)” value on FAAH [5] is “D (% inhibition is greater than or equal to 0% and less than 25%)”. Moreover, the “MAGL % inh. 5 mg/kg (mouse)” value at MAGL [6] was “D (% inhibition is greater than or equal to 0% and less than 25%)”.
`CC(=O)Nc1ccn(C(=O)N2CC3CN(Cc4cccc(C(F)(F)F)c4)CC3C2)n1` (centres unmarked) [Example 112, N-(1-(5-(3-(Trifluoromethyl)benzyl)octahydropyrrolo[3,4-c]pyrrole-2-carbonyl)-1H-pyrazol-3-yl)acetamide]: the inhibition at 1 µM is 25 to 50% on FAAH [1], > 75% at MAGL [2], > 75% on FAAH [3] and > 75% on MAGL [4]. Besides, the “FAAH % inh. 5 mg/kg (mouse)” value at FAAH [5] was “A (% inhibition is greater than or equal to 75%)”. Moreover, the “MAGL % inh. 5 mg/kg (mouse)” value on MAGL [6] is recorded as “A (% inhibition is greater than or equal to 75%)”.
Turning to `CS(=O)(=O)Nc1ccn(C(=O)N2CCN(Cc3ccc(Cl)c(N4CC[C@H](F)C4)c3)CC2)n1` [Example 117, (S)-N-(1-(4-(4-Chloro-3-(3-fluoropyrrolidin-1-yl)benzyl)piperazine-1-carbonyl)-1H-pyrazol-3-yl)methanesulfonamide], the inhibition at 1 µM is 0 to 25% at FAAH [1], > 75% on MAGL [2], 0 to 25% on FAAH [3] and > 75% at MAGL [4]. Moreover, the “FAAH % inh. 5 mg/kg (mouse)” value at FAAH [5] was “D (% inhibition is greater than or equal to 0% and less than 25%)”. Moreover, the “MAGL % inh. 5 mg/kg (mouse)” value at MAGL [6] was “B (% inhibition is greater than or equal to 50% and less than 75%)”.
For the compound `CC(=O)Nc1ccn(C(=O)N2CC[C@H](Oc3ccc(C(N)=O)c(C(F)(F)F)c3)[C@H](F)C2)n1` [Example 118, 4-(((3R,4S)-1-(3-Acetamido-1H-pyrazole-1-carbonyl)-3-fluoropiperidin-4-yl)oxy)-2-(trifluoromethyl)benzamide], the inhibition at 1 µM on FAAH [1] is 0 to 25%; on MAGL [2] it was > 75%; at FAAH [3], 0 to 25%; at MAGL [4] it was > 75%. Further, on FAAH [5], the “FAAH % inh. 5 mg/kg (mouse)” value was “D (% inhibition is greater than or equal to 0% and less than 25%)”. On MAGL [6], the “MAGL % inh. 5 mg/kg (mouse)” value was “D (% inhibition is greater than or equal to 0% and less than 25%)”.
In the case of `CS(=O)(=O)Nc1ccn(C(=O)N2CCN(Cc3ccc(C(F)(F)F)c(N4CC[C@H](F)C4)c3)CC2)n1` [Example 119, (S)-N-(1-(4-(3-(3-Fluoropyrrolidin-1-yl)-4-(trifluoromethyl)benzyl)piperazine-1-carbonyl)-1H-pyrazol-3-yl)methanesulfonamide], the inhibition at 1 µM on FAAH [1] is 0 to 25%; at MAGL [2] it was > 75%; at FAAH [3], 0 to 25%; at MAGL [4], > 75%. Moreover, the “FAAH % inh. 5 mg/kg (mouse)” value at FAAH [5] was “D (% inhibition is greater than or equal to 0% and less than 25%)”. In addition, the “MAGL % inh. 5 mg/kg (mouse)” value at MAGL [6] is “A (% inhibition is greater than or equal to 75%)”.
As for `CC(=O)Nc1ccn(C(=O)N2CCC3(CCN(Cc4ccc(C(N)=O)c(C(F)(F)F)c4)C3)CC2)n1` [Example 125, 4-((8-(3-Acetamido-1H-pyrazole-1-carbonyl)-2,8-diazaspiro[4.5]decan-2-yl)methyl)-2-(trifluoromethyl)benzamide], the inhibition at 1 µM at FAAH [1] was 0 to 25%; at MAGL [2], > 75%; on FAAH [3], 0 to 25%; at MAGL [4] it was > 75%. Also, the “FAAH % inh. 5 mg/kg (mouse)” value on FAAH [5] is “D (% inhibition is greater than or equal to 0% and less than 25%)”. Also, on MAGL [6], the “MAGL % inh. 5 mg/kg (mouse)” value was “D (% inhibition is greater than or equal to 0% and less than 25%)”.
Usually IC50 stands for the concentration that inhibits the measured activity by half. Read a high IC50 as weaker potency. `CC(=O)Nc1ccn(C(=O)N2CCN(Cc3ccc(-c4ccccc4)cc3C)CC2)n1` [Example 131, N-(1-(4-((3-Methyl-[1,1′-biphenyl]-4-yl)methyl)piperazine-1-carbonyl)-1H-pyrazol-3-yl)acetamide]: the inhibition at 1 µM on FAAH [1], at MAGL [2], on FAAH [3] and at MAGL [4] was > 75% each time. For the same compound, the IC50 at FAAH [1] is 1 to 10 µM; on MAGL [2] it was < 0.1 µM. Also, the “FAAH % inh. 5 mg/kg (mouse)” value at FAAH [5] is “A (% inhibition is greater than or equal to 75%)”. The “MAGL % inh. 5 mg/kg (mouse)” value on MAGL [6] is “A (% inhibition is greater than or equal to 75%)”.
